# Source: US20240327415A1, “Multicomponent Complexes, Including Salts, Crystalline Forms, and Hydrates and Solvates of ENT1 Inhibitors” (iTeos Belgium SA, priority 2023, published 2024)
# How the values were obtained:
# Assay type in all cases: physicochemical
# [1] = seven-day solid stability studies (ambient; 40° C./75% RH; 80° C.), XRPD and HPLC
# Procedure: (§1) In the experiment, one set of vials was exposed to ambient light, temperature and humidity conditions. Another was exposed openly to 40° C. and 75% RH conditions and a third was sealed and exposed to 80° C. conditions. After 7 days, XRPD and HPLC measurements were collected.
# (§2) Example 12-Stability Studies of Amorphous Compound 1 (free base) and Crystalline Form 1 Compound 1 (free base): Seven-day stability studies were carried out comparing amorphous Compound 1 (free base) and crystalline Form 1 Compound 1 (free base) at 40° C./75% RH, under ambient conditions and at 80° C. After storage at 40° C./75% RH and 80° C., the amorphous material formed glassy solids which were pale yellow (40° C./75% RH) or orange (80° C.). It is likely that the material melted and re-solidified at 80° C. and deliquesced at 40° C./75% RH. […] (decrease in purity of ca. 11% area).
# Example 15-Stabilities Studies-Crystalline Form 3 Compound 1 di(hydrogen sulfate) and Crystalline Form 4 Compound 1 mono(hydrogen sulfate): Seven-day stability studies were carried out on the prepared crystalline Form 3 Compound 1 di(hydrogen sulfate) and crystalline Form 4 Compound 1 mono(hydrogen sulfate) using the following conditions: (1) Ambient light, temperature and humidity conditions (open vial); (2) 40° C./75% RH (open vial); and (3) 80° C. (closed vial). After 7 days of storage under the specified conditions, XRPD and HPLC analyses were carried out on the residual solid materials, and the results are summarized in Table 51.
# Example 18-Seven Day Stability Study on Crystalline Form 2 Compound 1 di(hydrogen sulfate) trihydrate: A 7-day stability study was conducted on crystalline Form 2 Compound 1 di(hydrogen sulfate) trihydrate using the following conditions: (1) ambient light, temperature, and humidity conditions (open vial); (2) 40° C., 75% RH (open vial); and (3) 80° C. (closed vial). After 7 days of storage under the specified, XRPD and HPLC analyses were carried out on the residual solid materials.
# [2] = hydration mapping studies (slurries at different water activities, Example 17); details: aw 0.1, dried 40° C. reduced pressure 24 hr
# Procedure: Example 17—Hydration Mapping Studies-Crystalline Form 2 Compound 1 di(hydrogen sulfate) trihydrate, Crystalline Form 3 Compound 1 di(hydrogen sulfate), and Blend: The effects of different water activities on crystalline Form 2 Compound 1 di(hydrogen sulfate) trihydrate, crystalline Form 3 Compound 1 di(hydrogen sulfate) and a blend of the two were investigated. The “blend” was prepared by mixing crystalline Form 2 Compound 1 di(hydrogen sulfate) trihydrate and crystalline Form 3 Compound 1 di(hydrogen sulfate) in a 1:1 ratio. To the vials containing the required solid material, the appropriate solvent system was added to form slurries. The slurry samples were stirred at the required temperatures during and after the solvent addition. Where dissolution was observed post-solvent addition, additional solid was added to re-saturate the sample. After stirring at the required temperature for 48 hours, the residual solids left in the vials were analyzed by XRPD to assess the solid forms. The analyzed samples were then dried on the XRPD plate under reduced pressure at 40° C. for 24 hr. The dried samples were analyzed by XRPD.
# [3] = seven-day solid stability studies (ambient; 40° C./75% RH; 80° C.), XRPD and HPLC; design: key: Crystalline Form 3 di(hydrogen sulfate); Crystalline Form 9 di(hydrogen sulfate); Melt/Amorphous; details: 7 days, sealed
# Procedure: as §1, §2
# (§3) Example 15-Stabilities Studies-Crystalline Form 3 Compound 1 di(hydrogen sulfate) and Crystalline Form 4 Compound 1 mono(hydrogen sulfate): Seven-day stability studies were carried out on the prepared crystalline Form 3 Compound 1 di(hydrogen sulfate) and crystalline Form 4 Compound 1 mono(hydrogen sulfate) using the following conditions: (1) Ambient light, temperature and humidity conditions (open vial); (2) 40° C./75% RH (open vial); and (3) 80° C. (closed vial). […]
# [4] = as above; design: key: Crystalline Form 2 di(hydrogen sulfate) trihydrate; Crystalline Form 3 di(hydrogen sulfate); M4: Crystalline Form 4 mono(hydrogen sulfate); Crystalline Form 6 di(hydrogen sulfate); 3 + 9: Mixture of Crystalline Form 3 di(hydrogen sulfate) and Crystalline Form 9 di(hydrogen sulfate); details: 7 days, 80° C. (closed vial)
# Procedure: as §1, §2, §3
# [5] = salt screen, XRPD of damp, dried and 40° C./75% RH stored samples (Salt Preparation Methods 1 and 2); details: L-Malic acid, 1 equiv., AS Heptane
# Summary of the method: (§4)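 XRPD was recorded three times: on damp solids isolated at 5 °C, after ~17–91 h vacuum drying at ~40 °C, and after 24–48 h storage at 40 °C/75% RH. Solids came from stirring free base with 1.0 or 2.0 equiv. counterion at 40 °C, 40–5 °C temperature cycling, and anti-solvent addition.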
# [6] = as above; design: key: A = amorphous; Evap. = isolated via evaporation; details: 1 equiv.
# Summary of the method: as §4
# [7] = as above; design: key: A = amorphous; * = predominantly; 1 = Form 1 Compound 1 L-malate; 2 = Form 2 Compound 1 L-malate; details: L-Malic acid, 1 equiv.; MEK; AS Heptane
# Procedure: (§5) Salt Preparation Method 1: Approximately 25 mg of Compound 1 (free base) was weighed out into 1.5 mL screw-cap vials and a stirrer bar was added. For solid counterions, the appropriate amount of acid (1.0 or 2.0 equiv.) was weighed into separate 1.5 mL screw-cap vials. 100 μL of the appropriate solvent system was added to both the Compound 1 and the solid counterions. Stock solutions of liquid counterions were prepared, such that 100 μL contained 1.0 or 2.0 equiv. of acid. See counterion and solvent lists in Table 60 and Table 61 respectively.
# The samples were stirred at 40° C. for 5-10 min and then the acid solutions were added to Compound 1, rinsing out the transfer vial with a further 50 μL of solvent. […] Experiments were temperature cycled between 40° C. and 5° C. […]
# Temperature cycling was then continued for ca. 16-69 h, followed by further ASA and temperature cycling if required. Material was isolated at 5° C. and analyzed damp by XRPD. All isolated material was dried under vacuum at ca. 40° C. for ca. 17-91 h then re-analyzed by XRPD. The XRPD plate was stored at 40° C./75% RH for 24-48 h and then samples re-analyzed. […] Any residual solids were analyzed by XRPD. […]
# The experiments were stirred at 40° C. for ca. 1 h, and then temperature cycled between 40° C. and 5° C. with 0.1° C./min ramp and 1 h hold between each step. […] The damp and dried solids were subsampled and analyzed by XRPD. […]
# [8] = as above; design: key: A = amorphous; 1 = Form 1 Compound 1 hydrogen chloride; PC = poorly crystalline; details: Phosphoric acid, 1 equiv.; Ethyl acetate; AS Heptane
# Procedure: as §5
# (§6) The samples were stirred at 40° C. for 5-10 min and then the acid solutions were added to Compound 1, rinsing out the transfer vial with a further 50 μL of solvent. […] Experiments were temperature cycled between 40° C. and 5° C. (1 h hold; 0.1° C./min ramp/cool) for ca. 24-68 h. Anti-solvent addition (ASA) was carried out to slurries at 5° C. then experiments were heated to 30° C. over 1 h. ASA was carried out at 30° C. or 40° C. where clear solutions or gums were observed.
# (§7) Temperature cycling was then continued for ca. 16-69 h, followed by further ASA and temperature cycling if required. Material was isolated at 5° C. and analyzed damp by XRPD. All isolated material was dried under vacuum at ca. 40° C. for ca. 17-91 h then re-analyzed by XRPD. The XRPD plate was stored at 40° C./75% RH for 24-48 h and then samples re-analyzed. Solutions were stored uncapped at ambient temperature to evaporate. Any residual solids were analyzed by XRPD.
# (§8) Salt Preparation Method 2: The general procedure adopted in preparing the potential salts is outlined below. A known mass of Compound 1 (free base) and a known volume of the appropriate solvent system were added to 20 mL scintillation vials. The required mol. equiv. of the appropriate counterions were added to the vials as solutions or slurries in the corresponding solvent system.
# (§9) The experiments were stirred at 40° C. for ca. 1 h, and then temperature cycled between 40° C. and 5° C. with 0.1° C./min ramp and 1 h hold between each step. Anti-solvent additions and subsequent slurrying at 5° C. were employed in order to facilitate crystallization. […] The damp and dried solids were subsampled and analyzed by XRPD. Where applicable, the dried solids were stored at 40° C./75% RH for 24-48 h in order to improve the crystallinity and/or facilitate solid form conversion to the desired form.
# [9] = as above; design: key: A = amorphous; PC = poorly crystalline; 1 = Form 1 Compound 1 hydrogen phosphate; 2 = Form 2 Compound 1 hydrogen phosphate; 3 = Form 3 Compound 1 hydrogen phosphate; 4 = Form 4 Compound 1 hydrogen phosphate; details: Phosphoric acid, 1 equiv.
# Procedure: as §5, §6, §7, §8, §9
# [10] = L-Malic acid, Acetonitrile, AS tBME
# [11] = L-Malic acid, Ethyl acetate, AS Heptane
# [12] = L-Malic acid, IPA:H2O (75:25% v/v), AS tBME
# [13] = Phosphoric acid, Acetonitrile, AS tBME
# [14] = Phosphoric acid, IPA:H2O (75:25% v/v), AS tBME
structure (smiles),measurement,setting,value
COc1cc(C(=O)O[C@@H]2CCCOc3cc(cc(OC)c3OC)C(=O)NCCCN3CCCN(CC2)CC3)cc(OC)c1OC.O=S(=O)(O)O.O=S(=O)(O)O [Form 3 di(hydrogen sulfate)],HPLC,"[1]; 7 days, 40° C./75% RH (open vial)",99.82 % area
same,HPLC,"[1]; 7 days, 40° C./75% RH, open vial",99.82 % area
same,HPLC,"[1]; 7 days, 80° C. (closed vial)",99.80 % area
same,HPLC,"[1]; 7 days, 80° C., sealed",99.80 % area
same,HPLC,"[1]; 7 days, Ambient (open vial)",99.84 % area
same,HPLC,"[1]; 7 days, Ambient, open vial",99.84 % area
same,HPLC,[1]; Input sample,99.83 % area
same,"XRPD, hydration studies - dried samples","[2]; 20° C., 2-Propanol:Water","3, PC"
same,"XRPD, hydration studies - dried samples","[2]; 20° C., Acetonitrile:Water","3, PC"
same,"XRPD, hydration studies - dried samples","[2]; 50° C., 2-Propanol:Water","1, PC"
same,"XRPD, hydration studies - dried samples","[2]; 50° C., Acetonitrile:Water","3, PC"
same,XRPD,[3],9
same,XRPD,[4],3 + 9
"O=C(O)CC(O)C(=O)O [L-Malic acid, 1 equiv.]",XRPD Analysis Damp,[5]; Ethanol,* A
same,XRPD Analysis Dry,[5]; Ethanol,* A
same,XRPD Analysis Damp,[5]; MEK,1 + 2
same,XRPD Analysis Dry,[5]; MEK,1 + 2
same,XRPD Analysis 40° C. 75% RH,[6]; [10],A
same,XRPD Analysis Damp,[6]; [10],A
same,XRPD Analysis Dry,[6]; [10],A
same,XRPD Analysis 40° C. 75% RH,"[6]; L-Malic acid, Ethanol, AS Heptane",A
same,XRPD Analysis 40° C. 75% RH,[6]; [11],A
same,XRPD Analysis Damp,[6]; [11],A
same,XRPD Analysis Dry,[6]; [11],A
same,XRPD Analysis 40° C. 75% RH,[6]; [12],A
same,XRPD Analysis Damp,[6]; [12],A
same,XRPD Analysis Dry,[6]; [12],A
same,XRPD Analysis 40° C. 75% RH,"[6]; L-Malic acid, THE, AS Heptane",A
same,XRPD Analysis Damp,"[6]; L-Malic acid, THE, AS Heptane",A
same,XRPD Analysis Dry,"[6]; L-Malic acid, THE, AS Heptane",A
same,XRPD Analysis 40° C. 75% RH,[7],1
"O=P(O)(O)O [Phosphoric acid, 1 equiv.]",XRPD Analysis Damp,[6]; [13],A
same,XRPD Analysis Dry,[6]; [13],A
same,XRPD Analysis 40° C. 75% RH,[6]; [14],A
same,XRPD Analysis Damp,[6]; [14],A
same,XRPD Analysis Dry,[6]; [14],A
same,XRPD Analysis Damp,[8],PC
same,XRPD Analysis Dry,[8],PC
same,XRPD Analysis 40° C. 75% RH,"[9]; Acetonitrile, AS tBME",4
same,XRPD Analysis 40° C. 75% RH,"[9]; Ethanol, AS Heptane",1
same,XRPD Analysis Damp,"[9]; Ethanol, AS Heptane",1
same,XRPD Analysis Dry,"[9]; Ethanol, AS Heptane",1
same,XRPD Analysis 40° C. 75% RH,"[9]; Ethyl acetate, AS Heptane",2
same,XRPD Analysis 40° C. 75% RH,"[9]; MEK, AS Heptane",2
same,XRPD Analysis Damp,"[9]; MEK, AS Heptane",3
same,XRPD Analysis Dry,"[9]; MEK, AS Heptane",2
same,XRPD Analysis 40° C. 75% RH,"[9]; THF, AS Heptane",1
same,XRPD Analysis Damp,"[9]; THF, AS Heptane",1
same,XRPD Analysis Dry,"[9]; THF, AS Heptane",1
